Patent US11162944B2, “Compositions and methods” (priority 2015, dated 2021)
Marks after values point to notes of the source that are not given here.

Assays:
[1] = test system: wild-type BMDCs; assay: IL-6 secretion by bone marrow-derived dendritic cells, cytokine-specific ELISA; assay type: cell-based, mice; conditions: antigens at 100 μg/ml coated on plate, ISO as solvent, FIG. 1
Method: The concentrations of cytokines in the cell-free medium from stimulation of bone marrow-derived dendritic cells were determined using standard cytokine-specific ELISA. BMDCs were generated from mice, by flushing out the femurs of mice into complete medium and pipetting vigorously to make a single-cell suspension. The glycolipids were coated to the bottom of 96 micro-well plates (100 μg/ml). BMDCs were added, and after 6 or 48 hours of incubation the supernatants were harvested.
The first experiment was the IL-6 secretion by wild-type BMDCs from mice using compounds B, D, C and H (shown below) as antigens at 100 μg/ml, and isopropyl alcohol (ISO) as a solvent. Commercial trehalose-6,6-dimycolate (TDM), lipopolysaccharides (LPS), and trehalose-6,6-dibehenate (TDB) were used as a controls.

[2] = test system: biomarker (antibody) in serum from patients with suspected TB (tuberculosis); assay: ELISA of 64 serum samples on three synthetic antigens (Example 6); assay type: binding, human; conditions: dilution 1 in 80
Method: ELISA assays were carried out as known to those practiced in the art using 96 well plates. In the first procedure, the ELISA assay was carried out on 96-well microplates and the purified antigens were dissolved in n-hexane at a concentration of 62.5 μg/mL. The antigen solution was diluted and 50 μL was placed in each well. The plates were left to dry at room temperature overnight. Blocking was done with 0.5% casein/PBS (400 μL/well) and the plates were left to incubate at 25° C. for 1 h. The casein was aspirated using the LT-3500 plate washer and the plates flicked dry. Then the serum (1:20 dilution in 0.5% casein/PBS, pH 7.4) was added to the plate (50 μL/well) and left to incubate at 25° C. for 1 h. The serum was aspirated and washed three times with (casein/PBS, 400 μL/well) using the same plate washer and the plates were flicked dry again. After that, the secondary antibody, in the example given IgG Fc (1:1000 dilution in 0.5% casein/PBS) was added to the plate (50 μL/well) and the plates were left to incubate at 25° C. for 30 min. The plates were washed three times again with casein/PBS (400 μL/well) and dried. Then, the OPD substrate was added to the plates, which were left to incubate at 25° C. for 30 min. Finally, 2.5 M H2SO4 (50 μL/well) was added and the absorbances of each well were read at 492, 450 and 630 nm using an LT-4000 plate reader.
Human serum used in this work was from the WHO sample bank. In this case, all the patients had presented at a hospital with the symptoms of TB. Clinical diagnosis was made on the basis of a series of standard assays.
All measurements were taken as four replicates unless otherwise stated. These were averaged to provide the data in the tables which are for the value at 492 nm.
A set of 64 samples of serum from patients attending a clinic with suspected TB (tuberculosis) in a high burden TB population was examined using ELISA. Samples 1-9 had been diagnosed as positive for infection with tuberculosis (TB+) on the basis of a range of assays including sputum smear and culture, and samples 10-64 as negative for infection with tuberculosis (TB−). An ELISA assay was carried out with three synthetic antigens having the structures:
Cut-off values were set to identify all the positive samples with all three antigens, and the false positives were then identified in Table 3. […] 53 of the 55 negatives were correctly identified giving a specificity of 96%. The shaded results denote a result which is above the cut-off set for that particular antigen assay.

For `CCCCCCCCCCCCCCCCCCCCCCCCC(C(=O)OCC1OC(OCC2OC(OC)C(O)C2OC2OC(COC(=O)C(CCCCCCCCCCCCCCCCCCCCCCCC)C(O)CCCCCCCCCCCC3CC3CCCCCCCCCCCCCCC3CC3CCCCCCCCCCCCCCCCCCCC)C(O)C2O)C(O)C1O)C(O)CCCCCCCCCCCC1CC1CCCCCCCCCCCCCCC1CC1CCCCCCCCCCCCCCCCCCCC` (centres unmarked) [H], which “IL-6 secretion by wild-type BMDCs” value [1] is on record?
The value was “good level of stimulation”.

What does the source list for `CCCCCCCCCCCCCCCCCCCCCCCC[C@@H](C(=O)OC[C@H]1O[C@H](OC)[C@@H](O)[C@@H]1O)[C@H](O)CCCCCCCCCCCC1CC1CCCCCCCCCCCCCC[C@H]1C[C@H]1CCCCCCCCCCCCCCCCCCCC` (some centres unmarked) [Antigen 3]?
ELISA absorbance at 492 nm ([2]; sample 1 (TB+)): 0.74*; ELISA absorbance at 492 nm ([2]; sample 2 (TB+)): 0.76*; ELISA absorbance at 492 nm ([2]; sample 3 (TB+)): 0.99*; ELISA absorbance at 492 nm ([2]; sample 4 (TB+)): 0.97*; ELISA absorbance at 492 nm ([2]; sample 5 (TB+)): 0.99*; ELISA absorbance at 492 nm ([2]; sample 6 (TB+)): 1.39*; ELISA absorbance at 492 nm ([2]; sample 7 (TB+)): 1.97*; ELISA absorbance at 492 nm ([2]; sample 8 (TB+)): 1.67*; ELISA absorbance at 492 nm ([2]; sample 9 (TB+)): 1.09*; ELISA absorbance at 492 nm ([2]; sample 10 (TB−)): 0.59; ELISA absorbance at 492 nm ([2]; sample 11 (TB−)): 0.92*; ELISA absorbance at 492 nm ([2]; sample 12 (TB−)): 0.84*; ELISA absorbance at 492 nm ([2]; sample 13 (TB−)): 0.60; ELISA absorbance at 492 nm ([2]; sample 14 (TB−)): 1.30*; ELISA absorbance at 492 nm ([2]; sample 15 (TB−)): 0.64; ELISA absorbance at 492 nm ([2]; sample 16 (TB−)): 0.56; ELISA absorbance at 492 nm ([2]; sample 17 (TB−)): 0.81*; ELISA absorbance at 492 nm ([2]; sample 18 (TB−)): 0.68; ELISA absorbance at 492 nm ([2]; sample 19 (TB−)): 0.71*; ELISA absorbance at 492 nm ([2]; sample 20 (TB−)): 1.03*; ELISA absorbance at 492 nm ([2]; sample 21 (TB−)): 0.61; ELISA absorbance at 492 nm ([2]; sample 22 (TB−)): 0.66; ELISA absorbance at 492 nm ([2]; sample 23 (TB−)): 0.81*; ELISA absorbance at 492 nm ([2]; sample 24 (TB−)): 0.62; ELISA absorbance at 492 nm ([2]; sample 25 (TB−)): 0.21; ELISA absorbance at 492 nm ([2]; sample 26 (TB−)): 0.72*; ELISA absorbance at 492 nm ([2]; sample 27 (TB−)): 0.61; ELISA absorbance at 492 nm ([2]; sample 28 (TB−)): 0.38; ELISA absorbance at 492 nm ([2]; sample 29 (TB−)): 0.41; ELISA absorbance at 492 nm ([2]; sample 30 (TB−)): 0.39; ELISA absorbance at 492 nm ([2]; sample 31 (TB−)): 0.51; ELISA absorbance at 492 nm ([2]; sample 32 (TB−)): 0.91*; ELISA absorbance at 492 nm ([2]; sample 33 (TB−)): 0.42; ELISA absorbance at 492 nm ([2]; sample 34 (TB−)): 0.49; ELISA absorbance at 492 nm ([2]; sample 35 (TB−)): 0.38; ELISA absorbance at 492 nm ([2]; sample 36 (TB−)): 0.28; ELISA absorbance at 492 nm ([2]; sample 37 (TB−)): 0.55; ELISA absorbance at 492 nm ([2]; sample 38 (TB−)): 0.52; ELISA absorbance at 492 nm ([2]; sample 39 (TB−)): 0.35; ELISA absorbance at 492 nm ([2]; sample 40 (TB−)): 0.35; ELISA absorbance at 492 nm ([2]; sample 41 (TB−)): 0.66; ELISA absorbance at 492 nm ([2]; sample 42 (TB−)): 0.55; ELISA absorbance at 492 nm ([2]; sample 43 (TB−)): 0.30; ELISA absorbance at 492 nm ([2]; sample 44 (TB−)): 0.98*; ELISA absorbance at 492 nm ([2]; sample 45 (TB−)): 0.43; ELISA absorbance at 492 nm ([2]; sample 46 (TB−)): 0.31; ELISA absorbance at 492 nm ([2]; sample 47 (TB−)): 0.56; ELISA absorbance at 492 nm ([2]; sample 48 (TB−)): 0.32; ELISA absorbance at 492 nm ([2]; sample 49 (TB−)): 0.51; ELISA absorbance at 492 nm ([2]; sample 50 (TB−)): 0.37; ELISA absorbance at 492 nm ([2]; sample 51 (TB−)): 0.21; ELISA absorbance at 492 nm ([2]; sample 52 (TB−)): 0.36; ELISA absorbance at 492 nm ([2]; sample 53 (TB−)): 0.26; ELISA absorbance at 492 nm ([2]; sample 54 (TB−)): 0.27; ELISA absorbance at 492 nm ([2]; sample 55 (TB−)): 0.27; ELISA absorbance at 492 nm ([2]; sample 56 (TB−)): 0.73*; ELISA absorbance at 492 nm ([2]; sample 57 (TB−)): 0.37; ELISA absorbance at 492 nm ([2]; sample 58 (TB−)): 0.41; ELISA absorbance at 492 nm ([2]; sample 59 (TB−)): 0.45; ELISA absorbance at 492 nm ([2]; sample 60 (TB−)): 0.44; ELISA absorbance at 492 nm ([2]; sample 61 (TB−)): 0.41; ELISA absorbance at 492 nm ([2]; sample 62 (TB−)): 0.30; ELISA absorbance at 492 nm ([2]; sample 63 (TB−)): 0.25; ELISA absorbance at 492 nm ([2]; sample 64 (TB−)): 0.29
